For one data set, the system named is HeLa cells. The conditions noted are these: 100 μg/mL. As for the experimental part: As a model to examine the efficacy of 5-aminolevulinic acid-conjugated upconverting particles as described herein, particles prepared as described herein (having an 80 mol % Yb content), a 3-(4,5-dimethylthiazol-2-yl)-2,5-diphenyltetrazolium bromide (MTT) proliferation assay was conducted to determine inhibition of cell proliferation using photodynamic therapy with the nanoparticles prepared as described herein. In the cell proliferation assay, HeLa cells were exposed to 5-aminolevulinic acid-conjugated upconverting particles and various controls (all 100 μg/mL) for 4 h and the cells were then irradiated by irradiation of continuous wave 980 nm light at 1 W/cm^2. The results of the assay are shown in FIG. 8, which depicts cell viability as a function of irradiation time.
Then, impact of the lanthanide-doped upconverting nanoparticles on 5-ALA-induced photodynamic therapy was evaluated. […] Cells exposed to these control nanoparticles were irradiated at a biocompatible low power density of 0.35 W/cm^2.
A 96-well microtiter plate seeded with 1×10^4 HeLa cells/well was incubated overnight at 37° C. with 5% CO2. Cells were subsequently exposed to (i) 5-aminolevulinic acid functionalized upconverting nanoparticles comprising 80 mol % ytterbium (ALA-UCNPs, 100 μg/mL), (ii) hydrazide functionalized upconverting nanoparticles (no 5-ALA) (Hyd-UCNPs, 100 μg/mL), (iii) free 5-aminolevulinic acid (ALA, 100 μg/mL) or (iv) PBS (growth medium control) and then irradiated with CW 980 nm laser diode at 1 W/cm^2 for 0, 5, 10, or 20 min. After overnight incubation, cells were labeled with 12 mM solution of MTT in PBS for 4 h. Finally, the media was aspirated and replaced with 50 μL DMSO and cell viability was quantified by formazan absorption determined by a plate reader at 540 nm.
FIG. 8: Plots showing the viability of HeLa cells irradiated with CW 980 nm light at 1 W/cm^2 power density.
FIG. 9: Plots showing the viability of HeLa cells irradiated with CW 980 nm light at 0.35 W/cm^2 power density. […]

The subject of another data set is 4T1 tumors. Kind of data set: In vivo deep tumor photodynamic therapy treatment, tumor volume. More on the design: species or system Balb/c mice. The conditions noted are these: intratumoral. Here is the method: In vivo testing was conducted in subcutaneous tumors grown on Balb/c mice models to evaluate the effect of photodynamic therapy treatment using the upconversion nanoparticles described herein. The tumor volume reduction effect of a red light laser ranging from ˜635-685 nm (PpIX's activation region) and 980 nm light irradiation (activation wavelength of the upconverting nanoparticles described herein) was compared at a biocompatible level of 0.5 W/cm^2.
Female Balb/c mice were purchased from Nanjing Peng Sheng Biological Technology Co. Ltd. and used under protocols approved by Soochow University Laboratory Animal Center. 4T1 cells (1×10^6) suspended in 40 μL of PBS were subcutaneously injected into the back of each female Balb/c mouse. After about 6 days, the mice bearing 4T1 tumors were treated when the tumor volume reached about 50 mm^3.
An optical fiber-coupled 980 nm high power laser diode (Hi-Tech Optoelectronics Co., Ltd. Beijing, China) was used to irradiate tumors at a power density of about 0.5 W/cm^2 for 40 min. (1 min. interval after each minute of irradiation). The tumor sizes were measured by a caliper every other day and calculated as the volume (tumor length)×(tumor width)^2/2. The body weight of mice was also measured with every tumor measurement and percent change was calculated by the formula (observed body weight)/(body weight on day 0)×100%.
FIGS. 14(a) and 14(b). FIG. 14(a): Plots of the in vivo volume of tumors exposed to various controls and ALAUCNPs with red and near-infrared irradiation (0.5 W/cm^2) in simulated deep tumors. […] Statistical significance was determined from one-way t tests; significance (*) was based on p<0.05 and p>0.05 for not significant (**) pairs. There was no statistical difference between treatments with ALA-UCNPs with no pork whether red or near infra-red light was used. […] FIG. 14(b) is a diagram of in vivo photodynamic therapy treatment with red or near infra-red light conducted inserting pork tissue between the laser and the mice tumors to simulate treatment of deep tumors.

As to “α-NaYF4:Yb(80%),Er(2%)@CaF2 ALA [ALA-UCNPs]”, the viability of cells result in the data set on HeLa cells (4 h exposure, CW 980 nm 1 W/cm^2, 10 min irradiation) is on record as “about 30%”. The cell death result with HeLa cells (CW 980 nm 0.35 W/cm^2, 20 min irradiation) was “more than 60%”. In the data set with HeLa cells (CW 980 nm 1 W/cm^2, 10 min irradiation), this substance returned a killing rate of about 70%. Also, the “tumor reduction, 980 nm light with 12 mm pork versus red light with 6 mm pork” value with 4T1 tumors (0.5 W/cm^2) is on record as “significantly more effective”. Also, the “tumor volume, treatment with NIR versus red light” value in the data set with 4T1 tumors (0.5 W/cm^2, no pork) is listed as “no statistically significant difference”. For the same substance, the tumor reduction result in the data set on 4T1 tumors (980 nm 0.5 W/cm^2, 6 or 12 mm of pork tissue above the tumor) was “about 150 mm^3”. Also, in the data set with 4T1 tumors (red light irradiation 0.5 W/cm^2, pork tissue above the tumor), the therapeutic effect entry is listed as “no noticeable therapeutic effect”.

For the origin of these results see US9956426B2, “Upconverting nanoparticles” (priority 2015, dated 2018).
